Earlier results, collected in patent EP1385541B1, “IMMUNOSTIMULANT COMPOSITIONS COMPRISING AN AMINOALKYL GLUCOSAMINIDE PHOSPHATE AND QS-21” (priority 2000, dated 2001).
Like-named read-outs stand apart in the source and are kept apart here.

Key:
sheep red blood cells = conditions: substantially pure QS-21 saponin, as described in U.S. Patent No. 5,057,540

QS-21
hemolysis of sheep red blood cells at concentrations of (sheep red blood cells): ≥ 25 µg/mL | critical micellar concentration (in phosphate buffered saline): ~0.02 % (w/v) | critical micellar concentration (in water): about 0.03 % (w/v)
